Entries after “also recorded” stand apart in the source; their conditions may differ.
Key:
adult zebrafish brain = experiment: IHC for Aβ deposition in brain of adult zebrafish; assay type: in vivo, zebrafish (AB, Danio rerio); conditions: two days postinjection (so in the source)
Description: (§1) Adult zebrafish (10 months) were employed for the study. Prior to microinjection, adult zebrafish were anesthetized by placing them in a beaker filled with ice‐chilled tricaine (0.01% in Holtfreter's buffer) for 20 s. […] The needle penetrated between left and right telencephalon for not more than 1 mm and injection volume was 1 µL. The syringe was washed with ethanol and PBS in between the injections. The injections were made under a stereomicroscope and fish were held in place with forceps. After microinjection, the fish was placed back in the water tank for recovery.
The head of the fish was separated at pectoral fin point with a sharp blade and fixed in paraformaldehyde as described in the “Animal husbandry and ethics statement” section. The fixed heads were dehydrated by dipping in gradual concentration of ethanol, i.e., 20%, 40%, 60%, 80%, and 100% with 10 min at each step. The heads were treated with 20% sucrose overnight, mounted with Tissue Trek OCT mounting medium at −20 °C. The heads were then sectioned into 20 × 10^−6 M thick section with a cryostat. The sections were mounted on a gelatinized glass slide and immunostained with antibodies. The sections were dried, washed thrice in PBS (pH 7.4), and TritonX‐100 (0.05% in PBS) for 5 min each. […] The sections were imaged by a fluorescence microscope and fluorescence intensities were measured from the images with Fiji ImageJ analysis.

Aβ [1] = target: T1, Aβ (Homo sapiens, UniProt P05067); experiment: ThT assay of Aβ with P. aeruginosa biofilm fragments; assay type: biochemical; conditions: Aβ 50 × 10^−6 M ± biofilm fragments 5 × 10^−6 M (protein content), 37 °C, Figure S14
T1 construct: purchased Anaspec Inc
Description: P. aeruginosa biofilm fragments were generated by incubating fresh subcultures of bacteria (wild‐type reference strain PAO1) in cation‐adjusted Mueller‐Hinton broth (CAMHB) overnight in a 96‐well plate. After 48 h of incubation, the planktonic bacteria were pipetted out from the culture and replaced with fresh PBS (pH 7.4). The surface pellicle biofilm and ring biofilm attached to the well walls were scooped out and dispersed in PBS. The separated biofilm chunks were purified from the embodied bacteria by vortexing (10 min) with 20 µm glass beads and then repeated centrifugal washing (3 min, 2000 g) with PBS (pH 7.4). The biofilm containing supernatant was collected, concentrated, and adjusted to the concentration of 5 mg mL^−1 in deionized water. The concentration was adjusted with respect to the protein contents of biofilm via the BCA assay. […]
Aβ (Anaspec Inc., purity ≥ 95%) was dissolved in 100 µL of hexafluoro‐2‐propanol (HFIP) and incubated at room temperature for 3 h. […] The ThT fluorescence (excitation: 445 nm/ emission: 485 nm) was recorded at specified time intervals for 50 h. Kinetic parameters (rate constant k, half‐life t 1/2 and lag‐time) were calculated as described.^[ ^94 ^] Briefly, kinetic curves were fitted to a sigmoidal curve =y0+ymax−y0/1+e^−(t−t1/2)k , where y 0 and y max are initial and final ThT fluorescence values, allowing us to calculate lag time = t 1/2 − 2/k.

adult zebrafish [2] = experiment: Behavioral pathology of adult zebrafish (swimming); assay type: in vivo, zebrafish (AB, Danio rerio)
Description: Adult zebrafish (10 months) were employed for the study. Prior to microinjection, adult zebrafish were anesthetized by placing them in a beaker filled with ice‐chilled tricaine (0.01% in Holtfreter's buffer) for 20 s. The samples of Aβ alone and Aβ with FapCS or bacterial biofilm fragments were injected to the cerebroventricular space of adult fish with a 1 µL Hamilton glass syringe. The concentration of the Aβ peptide was 40 × 10^−6 M (in PBS, pH 7.4) while FapCS or biofilm fragments were included at a 10:1 ratio (Aβ:FapCS or biofilm fragments). The needle penetrated between left and right telencephalon for not more than 1 mm and injection volume was 1 µL. The syringe was washed with ethanol and PBS in between the injections. The injections were made under a stereomicroscope and fish were held in place with forceps. After microinjection, the fish was placed back in the water tank for recovery.
The behavioral pathology of the adult fish was observed after 4 d and 2 weeks of microinjection. The behavioral pathology of movement frequency and traveled distance was recorded with a zebrabox (Viewpoint) in a 1 L swimming tank. For cognitive function test, the tank was hypothetically divided into two parts of arena 1 and arena 2, and arena 2 was labeled by pasting a red paper at the bottom of the tank. The behavior of the untreated fish was recorded as positive control, in both arenas. Then fish from each sample were trained to avoid swimming in arena 2 by shocking with a 9 V battery electrodes, whenever the fish swim into arena 2. The fish were allowed to familiarize with the tank for 30 min and then trained for 20 min. After training, the swimming behavior of the fish was recorded in whole tank and then analyzed for arena 1 versus arena 2 with software EthnoVision X1.
The observations were made for 1 min with three fish per samples. The measurements were made three times in a day and then averaged together. […] Movement trajectories were also recorded with the instrument's camera.

adult zebrafish [3] = experiment: Cognitive memory function of adult zebrafish (arena 2 avoidance); assay type: in vivo, zebrafish (AB, Danio rerio); conditions: FapCS alone
Description: as §1
The behavioral pathology of the adult fish was observed after 4 d and 2 weeks of microinjection. The behavioral pathology of movement frequency and traveled distance was recorded with a zebrabox (Viewpoint) in a 1 L swimming tank. For cognitive function test, the tank was hypothetically divided into two parts of arena 1 and arena 2, and arena 2 was labeled by pasting a red paper at the bottom of the tank. The behavior of the untreated fish was recorded as positive control, in both arenas. […] After training, the swimming behavior of the fish was recorded in whole tank and then analyzed for arena 1 versus arena 2 with software EthnoVision X1.
The observations were made for 1 min with three fish per samples. […] Movement trajectories were also recorded with the instrument's camera.

Aβ [4] = target: T1, Aβ; experiment: Static light scattering (SLS) of Aβ fibrillar growth; assay type: biochemical; conditions: ratio as for ThT assay, Malvern Zetasizer Nano, n = 3
Description: Increases in the size of Aβ in the presence and absence of FapCS or bLgS were monitored by SLS. Solution of Aβ with FapCS or bLgS, at a similar ratio as for the ThT assay, was prepared and incubated. SLS measurements were performed at different time intervals using a Malvern Zetasizer Nano. The parameters were fixed at 7 for attenuator and 4.20 mm for cell position. Quartz cells with low volume capacity (100 µL) were used. The light scattering intensities (kilo counts per sec) and the refractive indices of the samples, buffer alone and toluene were measured.

Aβ monomers = experiment: Isothermal titration calorimetry (ITC); assay type: binding; conditions: Aβ 200 × 10^−6 M into 20 × 10^−6 M seeds, 0.1% NH4OH, 25 °C
Description: ITC (Malvern MicroCal iTC200) was used to explore the interaction between Aβ monomers and oligomers (Aβo) with FapCS. Sample solutions were degassed at 25 °C while stirring (100 rpm). Aβ (200 × 10^−6 M, 40 µL) was filled into the syringe while FapCS or bLgS (20 × 10^−6 M, 200 µL) were filled in the cell (coin shaped). 0.1% NH4OH buffer solution was used for both solutions. Aβ was injected into the cell at an injection volume of 2 µL at the duration of 4 s and with a spacing of 180 s. First injection was 0.2 µL for 0.4 s duration and a total of 16 injections were programed. The heat exchange was recorded with a Microcal analysis (origin v7) software. The heat of dilution (Aβ against buffer) was subtracted from the interaction heat of samples. The acquired curves were fitted to a sequential binding model and thermodynamic parameters of binding energy (ΔH), free energy (ΔG), and entropic factor (TΔS) were calculated. Aβo for the ITC experiments was prepared by incubating Aβ aqueous solution (200 × 10^−6 M) at 4 °C for 48 h.^[ ^65 ^]

[5] = 2 weeks postinjection, Aβ 1 µL, 40 × 10^−6 M, n = 3 per group, three groups

| Molecule | Aβ deposition in brain (in words) (adult zebrafish brain) | lag time (Aβ [1]) [h] | distance traveled (adult zebrafish [2]; [5]) [cm per min] | movement frequency (adult zebrafish [2]; [5]) [per min] | swimming behavior (in words) (adult zebrafish [2]; 4 d postinjection) | cognitive memory function (in words), time not stated (adult zebrafish [3]) | Aβ fibrillar growth by SLS (Aβ [4]) | binding to Aβ by ITC (in words) (Aβ monomers) |
| --- | --- | --- | --- | --- | --- | --- | --- | --- |
| amyloid beta [Aβ] | did not render any deposition in the fish brain | 23 | 57 ± 6.9 | 6 ± 2 | did not produce significant difference in the swimming behavior compared to the buffer control |  |  |  |
| FapCS: FapC seeds obtained by sonication of mature FapC fibrils (P. aeruginosa) (protein) GNEGGWHPPKPNPQSNNKGGATALVVDTQQNYNNKVSNFGTLNNASVSGSIKDASGNVGVNVAAGDNNQQANAAALASADASFVFGTATASTSVLQSGYGNTLNNYSNPNTASLSNSANNVSGNLGVNVAAGNFNQQKNDLAAAVSNGQYSTAGSAASQTSTGNTTVNSANYAYGGTYVSLKLNADGSYKGTSDQIGDVYLDTWEGQTHPGGSNTGHIDVDSQAQGAKDLNHDGGAFAFKEKGDVDLKGTVSGFIPAIVGFKTPVTNNASLSNSLQNVSGNVGVNIAAGGGNQQSNSLSIAAGCSSCPAGGESLGF |  |  |  |  |  | did not induce any cognitive deficiencies | significantly more rapid Aβ fibrillar growth; also recorded: rapid growth in the size of Aβ fibrils | weak but favorable interaction; also recorded: favorable binding with Aβ |

— publication PMC7509637 (Advanced Science, 2020)
